Patent US20230295234A1, “ANTIMICROBIAL PEPTIDOMIMETICS” (SPEXIS AG, priority 2020, published 2023)
Peptide text beside a SMILES is read from it.

Columns and labels:
[1] = tested on: Escherichia coli ATCC 25922; conditions: ATCC 25922
How it was run: (§1)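 First, bacterial colonies are suspended in saline and adjusted to 0.5 McFarland. Next, the suspension is diluted into cation-adjusted Mueller-Hinton II broth (approx. 5×10^5 CFU/mL). Finally, it is added to two-fold serially diluted peptide, with polysorbate 80 at 0.002% final.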

[2] = tested on: Escherichia coli MCR-1 Af 45; conditions: MCR-1 Af 45
How it was run: as §1

[3] = tested on: Klebsiella pneumoniae SSI3010; conditions: SSI3010
How it was run: as §1

[4] = tested on: human red blood cells (hRBC); assay: Hemolysis of human red blood cells; type: cell-based; conditions: red cells of human, 1 h
How it was run: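 Percent hemolysis is OD540 of peptide-treated supernatant relative to water-lysed cells. Each peptide was tested at 200 μg/mL against 20% (v/v) washed human erythrocytes. Incubation was 1 h at 37 °C, 300 rpm.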

Escherichia coli ATCC 25922 MIC [1] [µg/mL] | Escherichia coli MCR-1 Af 45 MIC [2] [µg/mL] | Klebsiella pneumoniae SSI3010 MIC [3] [µg/mL] | SMILES | Hemolysis at 0.2 g/L [4] [%]
0.0625 | ≤0.03125 | 0.0625 | CC[C@H](C)[C@H](NC(=O)[C@@H]1CCCN1C(=O)[C@@H](NC(=O)CN(C)C(=O)[C@H](CCCNC(=N)N)NC(=O)[C@@H](N)CCCCN)C(C)C)C(=O)N[C@@H](Cc1ccccc1)C(=O)N[C@@H](Cc1ccc(O)cc1)C(=O)N[C@@H]1C(=O)N[C@@H](CC(N)=O)C(=O)N[C@@H](CCCNC(=N)N)C(=O)N[C@@H](CCN)C(=O)N[C@@H]([C@@H](C)O)C(=O)N[C@H](CCN)C(=O)N[C@@H](CCCCN)C(=O)N[C@H](C(=O)N[C@@H](CCN)C(=O)N[C@@H](CCCNC(=N)N)C(=O)N[C@@H](Cc2ccc(O)cc2)C(=O)O)CSSC1(C)C [Example 89, Lys-Arg-Sar-Val-Pro-Ile-Phe-Tyr-Pen-Asn-Arg-Dab-Thr-^DDab-Lys-Cys-Dab-Arg-Tyr] (HELM PEPTIDE1{K.R.[Sar].V.P.I.F.Y.[Pen].N.R.[Dab].T.[NCC[C@@H](N[*:1])C(=O)[*:2]].K.C.[Dab].R.Y}$PEPTIDE1,PEPTIDE1,9:R3-16:R3$$$V2.0) | 0
0.25 | 0.0625 | 0.125 | CC[C@H](C)[C@H](NC(=O)[C@@H](NC(=O)[C@@H]1CCCN1C(=O)[C@@H](NC(=O)[C@@H]1CCCN1C(=O)[C@@H](C)NC(=O)[C@@H](N)CCCCN)C(C)C)[C@@H](C)CC)C(=O)N[C@@H](Cc1ccc(O)cc1)C(=O)N[C@@H]1C(=O)N[C@@H](CC(N)=O)C(=O)N[C@@H](CCCNC(=N)N)C(=O)N[C@@H](CCN)C(=O)N[C@@H]([C@@H](C)O)C(=O)N[C@H](CCN)C(=O)N[C@@H](CCCCN)C(=O)N[C@H](C(=O)N[C@@H](CCN)C(=O)N[C@@H](CCCNC(=N)N)C(=O)N[C@@H](Cc2ccc(O)cc2)C(=O)O)CSSC1(C)C [Example 90, Lys-^DAla-Pro-Val-Pro-Ile-Ile-Tyr-Pen-Asn-Arg-Dab-Thr-^DDab-Lys-Cys-Dab-Arg-Tyr] (HELM PEPTIDE1{K.[dA].P.V.P.I.I.Y.[Pen].N.R.[Dab].T.[NCC[C@@H](N[*:1])C(=O)[*:2]].K.C.[Dab].R.Y}$PEPTIDE1,PEPTIDE1,9:R3-16:R3$$$V2.0) | 0
0.125 | ≤0.03125 | 0.125 | CC[C@H](C)[C@H](NC(=O)[C@@H](NC(=O)[C@@H]1CCCN1C(=O)[C@@H](NC(=O)[C@@H]1CCCN1C(=O)CNC(=O)[C@@H](N)CCCCN)C(C)C)[C@@H](C)CC)C(=O)N[C@@H](Cc1ccc(O)cc1)C(=O)N[C@@H]1C(=O)N[C@@H](CC(N)=O)C(=O)N[C@@H](CCCNC(=N)N)C(=O)N[C@@H](CCN)C(=O)N[C@@H]([C@@H](C)O)C(=O)N[C@H](CCN)C(=O)N[C@@H](CCCCN)C(=O)N[C@H](C(=O)N[C@@H](CCN)C(=O)N[C@@H](CCCNC(=N)N)C(=O)N[C@@H](Cc2ccc(O)cc2)C(=O)O)CSSC1(C)C [Example 91] (HELM PEPTIDE1{K.G.P.V.P.I.I.Y.[Pen].N.R.[Dab].T.[NCC[C@@H](N[*:1])C(=O)[*:2]].K.C.[Dab].R.Y}$PEPTIDE1,PEPTIDE1,9:R3-16:R3$$$V2.0) | 0
0.0625 | ≤0.03125 | 0.0625 | CC[C@H](C)[C@H](NC(=O)[C@@H](NC(=O)[C@@H]1CCCN1C(=O)[C@@H](NC(=O)[C@@H]1CCCN1C(=O)CN(C)C(=O)[C@@H](N)CCCCN)C(C)C)[C@@H](C)CC)C(=O)N[C@@H](Cc1ccc(O)cc1)C(=O)N[C@@H]1C(=O)N[C@@H](CC(N)=O)C(=O)N[C@@H](CCCNC(=N)N)C(=O)N[C@@H](CCN)C(=O)N[C@@H]([C@@H](C)O)C(=O)N[C@H](CCN)C(=O)N[C@@H](CCCCN)C(=O)N[C@H](C(=O)N[C@@H](CCN)C(=O)N[C@@H](CCCNC(=N)N)C(=O)N[C@@H](Cc2ccc(O)cc2)C(=O)O)CSSC1(C)C [Example 92, Lys-Sar-Pro-Val-Pro-Ile-Ile-Tyr-Pen-Asn-Arg-Dab-Thr-^DDab-Lys-Cys-Dab-Arg-Tyr] (HELM PEPTIDE1{K.[Sar].P.V.P.I.I.Y.[Pen].N.R.[Dab].T.[NCC[C@@H](N[*:1])C(=O)[*:2]].K.C.[Dab].R.Y}$PEPTIDE1,PEPTIDE1,9:R3-16:R3$$$V2.0) | 0
0.0625 | 0.0625 | 0.125 | CC[C@H](C)[C@H](NC(=O)[C@@H](NC(=O)[C@@H]1CCCN1C(=O)[C@@H](NC(=O)CNC(=O)CNC(=O)[C@@H](N)CCCCN)C(C)C)[C@@H](C)CC)C(=O)N[C@@H](Cc1ccc(O)cc1)C(=O)N[C@@H]1C(=O)N[C@@H](CC(N)=O)C(=O)N[C@@H](CCCNC(=N)N)C(=O)N[C@@H](CCN)C(=O)N[C@@H]([C@@H](C)O)C(=O)N[C@H](CCN)C(=O)N[C@@H](CCCCN)C(=O)N[C@H](C(=O)N[C@@H](CCN)C(=O)N[C@@H](CCCNC(=N)N)C(=O)N[C@@H](Cc2ccc(O)cc2)C(=O)O)CSSC1(C)C [Example 93] (HELM PEPTIDE1{K.G.G.V.P.I.I.Y.[Pen].N.R.[Dab].T.[NCC[C@@H](N[*:1])C(=O)[*:2]].K.C.[Dab].R.Y}$PEPTIDE1,PEPTIDE1,9:R3-16:R3$$$V2.0) | 0
0.125 | ≤0.03125 | 0.125 | CC[C@H](C)[C@H](NC(=O)[C@@H](NC(=O)[C@@H]1CCCN1C(=O)[C@@H](NC(=O)CN(C)C(=O)CNC(=O)[C@@H](N)CCCCN)C(C)C)[C@@H](C)CC)C(=O)N[C@@H](Cc1ccc(O)cc1)C(=O)N[C@@H]1C(=O)N[C@@H](CC(N)=O)C(=O)N[C@@H](CCCNC(=N)N)C(=O)N[C@@H](CCN)C(=O)N[C@@H]([C@@H](C)O)C(=O)N[C@H](CCN)C(=O)N[C@@H](CCCCN)C(=O)N[C@H](C(=O)N[C@@H](CCN)C(=O)N[C@@H](CCCNC(=N)N)C(=O)N[C@@H](Cc2ccc(O)cc2)C(=O)O)CSSC1(C)C [Example 94, Lys-Gly-Sar-Val-Pro-Ile-Ile-Tyr-Pen-Asn-Arg-Dab-Thr-^DDab-Lys-Cys-Dab-Arg-Tyr] (HELM PEPTIDE1{K.G.[Sar].V.P.I.I.Y.[Pen].N.R.[Dab].T.[NCC[C@@H](N[*:1])C(=O)[*:2]].K.C.[Dab].R.Y}$PEPTIDE1,PEPTIDE1,9:R3-16:R3$$$V2.0) | 0
0.125 | 0.125 | 0.25 | CC[C@H](C)[C@H](NC(=O)[C@@H](NC(=O)[C@@H]1CCCN1C(=O)[C@@H](NC(=O)CN(C)C(=O)CN(C)C(=O)[C@@H](N)CCCCN)C(C)C)[C@@H](C)CC)C(=O)N[C@@H](Cc1ccc(O)cc1)C(=O)N[C@@H]1C(=O)N[C@@H](CC(N)=O)C(=O)N[C@@H](CCCNC(=N)N)C(=O)N[C@@H](CCN)C(=O)N[C@@H]([C@@H](C)O)C(=O)N[C@H](CCN)C(=O)N[C@@H](CCCCN)C(=O)N[C@H](C(=O)N[C@@H](CCN)C(=O)N[C@@H](CCCNC(=N)N)C(=O)N[C@@H](Cc2ccc(O)cc2)C(=O)O)CSSC1(C)C [Example 95, Lys-Sar-Sar-Val-Pro-Ile-Ile-Tyr-Pen-Asn-Arg-Dab-Thr-^DDab-Lys-Cys-Dab-Arg-Tyr] (HELM PEPTIDE1{K.[Sar].[Sar].V.P.I.I.Y.[Pen].N.R.[Dab].T.[NCC[C@@H](N[*:1])C(=O)[*:2]].K.C.[Dab].R.Y}$PEPTIDE1,PEPTIDE1,9:R3-16:R3$$$V2.0) | 0
0.0625 | 0.0625 | 0.125 | CC[C@H](C)[C@H](NC(=O)[C@@H](NC(=O)[C@@H]1CCCN1C(=O)[C@@H](NC(=O)[C@@H]1CCCN1C(=O)[C@H](CCCCN)NC(=O)CNCCN)C(C)C)[C@@H](C)CC)C(=O)N[C@@H](Cc1ccc(O)cc1)C(=O)N[C@H]1CSSC[C@@H](C(=O)N[C@@H](CCN)C(=O)N[C@@H](CCCNC(=N)N)C(=O)N[C@@H](Cc2ccc(O)cc2)C(=O)O)NC(=O)[C@H](CCCCN)NC(=O)[C@@H](CCN)NC(=O)[C@H]([C@@H](C)O)NC(=O)[C@H](CCN)NC(=O)[C@H](CCCNC(=N)N)NC(=O)[C@H](CC(N)=O)NC1=O [Example 96] (HELM PEPTIDE1{[NCCNCC(=O)[*:2]].K.P.V.P.I.I.Y.C.N.R.[Dab].T.[NCC[C@@H](N[*:1])C(=O)[*:2]].K.C.[Dab].R.Y}$PEPTIDE1,PEPTIDE1,9:R3-16:R3$$$V2.0) | 0
≤0.03125 | ≤0.03125 | ≤0.03125 | CC[C@H](C)[C@H](NC(=O)[C@@H](NC(=O)[C@@H]1CCCN1C(=O)[C@@H](NC(=O)[C@@H]1CCCN1C(=O)[C@H](CCCCN)NC(=O)CNCCCCN)C(C)C)[C@@H](C)CC)C(=O)N[C@@H](Cc1ccc(O)cc1)C(=O)N[C@H]1CSSC[C@@H](C(=O)N[C@@H](CCN)C(=O)N[C@@H](CCCNC(=N)N)C(=O)N[C@@H](Cc2ccc(O)cc2)C(=O)O)NC(=O)[C@H](CCCCN)NC(=O)[C@@H](CCN)NC(=O)[C@H]([C@@H](C)O)NC(=O)[C@H](CCN)NC(=O)[C@H](CCCNC(=N)N)NC(=O)[C@H](CC(N)=O)NC1=O [Example 97] (HELM PEPTIDE1{[NCCCCNCC(=O)[*:2]].K.P.V.P.I.I.Y.C.N.R.[Dab].T.[NCC[C@@H](N[*:1])C(=O)[*:2]].K.C.[Dab].R.Y}$PEPTIDE1,PEPTIDE1,9:R3-16:R3$$$V2.0; N-terminus assumed) | 0
